The values below are quoted from earlier work in patent publication US20170340738A1, “STABLE ACIDIC INSULIN FORMULATIONS” (MERCK SHARP & DOHME CORP., priority 2012, published 2017).

The conditions of the data set: administered once daily subcutaneously.

On to “Gly(A21), Arg(B31), Arg(B32)-human insulin [insulin glargine]”, for which the Basal coverage was 24 h.
